One test concerns EGFR-Del19/T790M/C797S. In words: EGFR degradation HTRF assay in H1975-clone #28 cells. Particulars: H1975-clone #28 (Del19/T790M/C797S) cells, 16 h treatment; for DC50: IC50 (DC50), read-out: DC50(nM) H1975 # 28 DTC; for Dmax (%) H1975 # 28 DTC: maximum percentage of inhibition (degradation). It is filed as cell-based. As to the method:
(§1) H1975-clone #28(Del19/T790M/C797S) and H1975-clone #25(L858R/T790M/C797S). EGFR-Del19/T790M/C797S and EGFR-L858R/T790M/C797S were stably expressed in H1975 cell lines by lentivirus-mediated over-expression, respectively. The EGFR over-expressed cells then underwent knockout, in which the EGFR targeting sgRNA was designed to only target the endogenous EGFR copies and preserve the exogenous EGFR copies. Followed by knockout, the edited H1975 cells were seeded in 96 well plates at the concentration of […], cultured for about 2 weeks to allow single clones formation. The formed clones were screened by DNA sequencing and whole exon sequencing analysis for the desired edition.
(§2) H1975-clone #28, and H1975-clone #25 were finally confirmed as homozygous Del19/T790M/C797S EGFR, and L858R/T790M/C797S EGFR clones, respectively.
(§3) H1975-#25 and H1975-#28 cells are treated with compounds diluted in 0.2% DMSO cell culture medium on day 2, incubate for 16 h, 37° C., 5% CO2. the final concentration of compounds in all assay is start with 10 uM, 5-fold dilution, total 8 doses were included.
(§4) After 16 h treatment, add HTRF lysis buffer to each well; seal the plate and incubate 1 hour at room temperature on a plate shaker; Once the cells are lysed, 16 μL of cell lysate are transferred to a PE 384-well HTRF detection plate; 4 μL of pre-mixed HTRF antibodies are added to each well; Cover the plate with a plate sealer, spin 1000 rpm for 1 min, Incubate overnight at room temperature; Read on BMG PheraStar with HTRF protocol (337 nm-665 nm-620 nm).
(§5) The inhibition (degradation) percentage of the compound was calculated by the following equation:
(§6) Inhibition percentage of Compound=100−100×(Signal−low control)/(High control−low control),
(§7) The IC50 (DC50) value of a compound can be obtained by fitting the following equation
(§8) Wherein, X and Y are known values, and IC50, Hillslope, Top and Bottom are the parameters obtained by fitting with software. Y is the inhibition percentage (calculated from the equation), X is the concentration of the compound; IC50 is the concentration of the compound when the 50% inhibition is reached. The smaller the IC50 value is, the stronger the inhibitory ability of the compound is. Vice versa, the higher the IC50 value is, the weaker the ability the inhibitory ability of the compound is; Hillslope represents the slope of the fitted curve, generally around 1 *; Bottom represents the minimum value of the curve obtained by data fitting, which is generally 0%±20%; Top represents the maximum value of the curve obtained by data fitting, which is generally 100%±20%. The experimental data were fitted by calculating and analyzing with Dotmatics data analysis software.
In general terms: Time-resolved FRET reads energy transfer from a long-lived donor to a nearby acceptor.

The target of the next test is T1, EGFR-L858R/T790M/C797S (Homo sapiens, UniProt P00533, C797S/L858R/T790M).
T1 construct: expressed in transfected cells; host or cells: H1975-clone #25 (lentiviral over-expression, endogenous EGFR knocked out)
T1 sequence (P00533 25-1210 T790M/C797S/L858R): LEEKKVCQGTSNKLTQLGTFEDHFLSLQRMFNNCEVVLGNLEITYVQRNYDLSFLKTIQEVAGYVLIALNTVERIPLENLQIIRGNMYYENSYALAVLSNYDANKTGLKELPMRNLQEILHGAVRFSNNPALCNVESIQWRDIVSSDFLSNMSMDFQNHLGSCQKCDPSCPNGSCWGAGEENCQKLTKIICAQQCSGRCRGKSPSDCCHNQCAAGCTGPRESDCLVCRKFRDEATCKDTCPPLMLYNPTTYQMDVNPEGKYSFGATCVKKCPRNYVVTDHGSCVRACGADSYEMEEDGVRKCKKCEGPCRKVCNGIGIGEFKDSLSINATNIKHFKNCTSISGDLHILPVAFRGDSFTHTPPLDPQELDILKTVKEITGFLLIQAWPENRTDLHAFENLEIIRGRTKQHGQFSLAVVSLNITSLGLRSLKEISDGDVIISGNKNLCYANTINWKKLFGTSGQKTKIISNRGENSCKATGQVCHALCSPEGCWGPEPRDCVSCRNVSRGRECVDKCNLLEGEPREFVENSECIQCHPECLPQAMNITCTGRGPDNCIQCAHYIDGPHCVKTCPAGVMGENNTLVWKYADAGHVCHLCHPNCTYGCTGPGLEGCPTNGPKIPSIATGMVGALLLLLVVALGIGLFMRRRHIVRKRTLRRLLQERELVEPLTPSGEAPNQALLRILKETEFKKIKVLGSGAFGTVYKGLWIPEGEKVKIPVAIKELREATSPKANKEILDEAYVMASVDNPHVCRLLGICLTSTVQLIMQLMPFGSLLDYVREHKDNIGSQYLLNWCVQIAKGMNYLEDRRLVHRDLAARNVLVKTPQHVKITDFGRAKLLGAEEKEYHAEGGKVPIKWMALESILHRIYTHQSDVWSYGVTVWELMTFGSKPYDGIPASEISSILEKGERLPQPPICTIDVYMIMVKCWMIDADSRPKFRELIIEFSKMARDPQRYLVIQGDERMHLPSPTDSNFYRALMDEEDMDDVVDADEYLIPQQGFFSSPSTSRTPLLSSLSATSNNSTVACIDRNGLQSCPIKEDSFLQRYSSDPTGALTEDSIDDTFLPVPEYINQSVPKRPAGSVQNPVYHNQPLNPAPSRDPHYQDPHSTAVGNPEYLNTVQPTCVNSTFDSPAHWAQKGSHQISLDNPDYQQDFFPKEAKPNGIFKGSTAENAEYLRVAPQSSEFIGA
Nature of the test: EGFR degradation HTRF assay in H1975-clone #25 cells. It is filed as cell-based. Particulars: 16 h treatment; for DC50: H1975-clone #25 (L858R/T790M/C797S) cells, IC50 (DC50), read-out: DC50(nM) H1975 # 25-LTC; for Dmax: NCI-H1975, H1975-clone #25 (L858R/T790M/C797S) cells, maximum percentage of inhibition (degradation), read-out: Dmax (%) H1975 # 25-LTC. As to the method: as §1, §2, §3, §4, §5, §6, §7, §8

Consider `CCc1ncc2c(P(C)(C)=O)c(Nc3nc(Nc4cc(CC)c(N5CCC6(CC5)CCN(C5CCN(c7cc(F)c([C@H]8CCC(=O)NC8=O)c(F)c7)CC5)CC6)cc4OC)ncc3Br)ccc2n1` [Example 3, (R)-3-(4-(4-(9-(4-((5-bromo-4-((5-(dimethylphosphoryl)-2-ethylquinazolin-6-yl)amino)pyrimidin-2-yl)amino)-2-ethyl-5-methoxyphenyl)-3,9-diazaspiro[5.5]undecan-3-yl)piperidin-1-yl)-2,6-difluorophenyl)piperidine-2,6-dione], for which, in the test on EGFR-Del19/T790M/C797S, the DC50 is 1.9 nM and the “Dmax (%) H1975 # 28 DTC” value amounted to 91%. Besides, at EGFR-L858R/T790M/C797S, the DC50 stood at 2.8 nM and the Dmax was 95%.
Consider `CCc1cc(Nc2ncc(Br)c(Nc3ccc4nc(C)c(F)cc4c3P(C)(C)=O)n2)c(OC)cc1N1CCC2(CCN(CCc3cc(F)c([C@H]4CCC(=O)NC4=O)c(F)c3)CC2)CC1` [Example 6, (R)-3-(4-(2-(9-(4-((5-bromo-4-((5-(dimethylphosphoryl)-3-fluoro-2-methylquinolin-6-yl)amino)pyrimidin-2-yl)amino)-2-ethyl-5-methoxyphenyl)-3,9-diazaspiro[5.5]undecan-3-yl)ethyl)-2,6-difluorophenyl)piperidine-2,6-dione], for which, in the test with EGFR-Del19/T790M/C797S, the DC50 is 3.1 nM and the “Dmax (%) H1975 # 28 DTC” value worked out at 80%. In addition, on EGFR-L858R/T790M/C797S, the DC50 came out at 9 nM and the Dmax is 89%.
With `CCc1cc(Nc2ncc(Br)c(Nc3ccc4nc(C)c(F)cc4c3P(C)(C)=O)n2)c(OC)cc1N1CCC(N2CCN(C3CN(c4cc(F)c([C@H]5CCC(=O)NC5=O)c(F)c4)C3)CC2)CC1` [Example 8, (R)-3-(4-(3-(4-(1-(4-((5-bromo-4-((5-(dimethylphosphoryl)-3-fluoro-2-methylquinolin-6-yl)amino)pyrimidin-2-yl)amino)-2-ethyl-5-methoxyphenyl)piperidin-4-yl)piperazin-1-yl)azetidin-1-yl)-2,6-difluorophenyl)piperidine-2,6-dione], in the test on EGFR-Del19/T790M/C797S, the DC50 is 0.6 nM and the “Dmax (%) H1975 # 28 DTC” value is listed as 80%. On EGFR-L858R/T790M/C797S, the DC50 amounted to 1.6 nM and the Dmax was 87%.
Take `CCc1cc(Nc2ncc(Cl)c(Nc3ccc4nc(C)c(F)cc4c3P(C)(C)=O)n2)c(OC)cc1N1CCC(N2CCC(N3CCN(c4cc(F)c([C@H]5CCC(=O)NC5=O)c(F)c4)CC3)CC2)CC1` [Example 12, (R)-3-(4-(4-(1′-(4-((5-chloro-4-((5-(dimethylphosphoryl)-3-fluoro-2-methylquinolin-6-yl)amino)pyrimidin-2-yl)amino)-2-ethyl-5-methoxyphenyl)-[1,4′-bipiperidin]-4-yl)piperazin-1-yl)-2,6-difluorophenyl)piperidine-2,6-dione]: in the test with EGFR-Del19/T790M/C797S, the DC50 was 2.9 nM and the “Dmax (%) H1975 # 28 DTC” value was found to be 91%. Besides, at EGFR-L858R/T790M/C797S, the DC50 was determined as 2.5 nM and the Dmax is 92%.
For `CCc1ncc2c(P(C)(C)=O)c(Nc3nc(Nc4cc(CC)c(N5CCC(N6CC(N7CCC(c8cc(F)c([C@H]9CCC(=O)NC9=O)c(F)c8)CC7)C6)CC5)cc4OC)ncc3Br)ccc2n1` [Example 13, (R)-3-(4-(1-(1-(1-(4-((5-bromo-4-((5-(dimethylphosphoryl)-2-ethylquinazolin-6-yl)amino)pyrimidin-2-yl)amino)-2-ethyl-5-methoxyphenyl)piperidin-4-yl)azetidin-3-yl)piperidin-4-yl)-2,6-difluorophenyl)piperidine-2,6-dione], in that order: 0.7 nM, 92%, 1.8 nM and 94%.
The matching figures for `CCc1ccc2c(P(C)(C)=O)c(Nc3nc(Nc4cc(CC)c(N5CCC(N6CC(N7CCC(c8cc(F)c([C@H]9CCC(=O)NC9=O)c(F)c8)CC7)C6)CC5)cc4OC)ncc3Br)ccc2n1` [Example 14, (R)-3-(4-(1-(1-(1-(4-((5-bromo-4-((5-(dimethylphosphoryl)-2-ethylquinolin-6-yl)amino)pyrimidin-2-yl)amino)-2-ethyl-5-methoxyphenyl)piperidin-4-yl)azetidin-3-yl)piperidin-4-yl)-2,6-difluorophenyl)piperidine-2,6-dione]: 1.9 nM, 89%, 2.1 nM and 91%.
On to `CCOc1cc(N2CCC(N3CC(N4CCC(c5cc(F)c([C@H]6CCC(=O)NC6=O)c(F)c5)CC4)C3)CC2)c(CC)cc1Nc1ncc(Cl)c(Nc2ccc3nc(C)c(F)cc3c2P(C)(C)=O)n1` [Example 15, (R)-3-(4-(1-(1-(1-(4-((5-chloro-4-((5-(dimethylphosphoryl)-3-fluoro-2-methylquinolin-6-yl)amino)pyrimidin-2-yl)amino)-5-ethoxy-2-ethylphenyl)piperidin-4-yl)azetidin-3-yl)piperidin-4-yl)-2,6-difluorophenyl)piperidine-2,6-dione], for which, in the test on EGFR-Del19/T790M/C797S, the DC50 came out at 2.7 nM and the “Dmax (%) H1975 # 28 DTC” value is given as 95%. On EGFR-L858R/T790M/C797S, the DC50 worked out at 3.3 nM and the Dmax amounted to 94%.
For the molecule `CCc1cc(Nc2ncc(Br)c(Nc3ccc4nc(C)c(F)cc4c3P(C)(C)=O)n2)c(OC)cc1N1CCC(N2CCC3(CCN(c4cc(F)c([C@H]5CCC(=O)NC5=O)c(F)c4)C3)C2)CC1` (stereo partly drawn) [Example 17, (3R)-3-(4-(7-(1-(4-((5-bromo-4-((5-(dimethylphosphoryl)-3-fluoro-2-methylquinolin-6-yl)amino)pyrimidin-2-yl)amino)-2-ethyl-5-methoxyphenyl)piperidin-4-yl)-2,7-diazaspiro[4.4]nonan-2-yl)-2,6-difluorophenyl)piperidine-2,6-dione], in the test with EGFR-Del19/T790M/C797S, the DC50 turned out to be 1.7 nM and the “Dmax (%) H1975 # 28 DTC” value is on record as 92%. In addition, on EGFR-L858R/T790M/C797S, the 50% degradation concentration (DC50) was determined as 2.9 nM and the Dmax was 87%.
In the case of `CCc1ccc2c(P(C)(C)=O)c(Nc3nc(Nc4cc(CC)c(N5CCC(N6CCN(C7CN(c8cccc9c8n(C)c(=O)n9C8CCC(=O)NC8=O)C7)CC6)CC5)cc4OC)ncc3Br)ccc2n1` (stereo not shown) [Example 21, 3-(4-(3-(4-(1-(4-((5-bromo-4-((5-(dimethylphosphoryl)-2-ethylquinolin-6-yl)amino)pyrimidin-2-yl)amino)-2-ethyl-5-methoxyphenyl)piperidin-4-yl)piperazin-1-yl)azetidin-1-yl)-3-methyl-2-oxo-2,3-dihydro-1H-benzol[d]imidazol-1-yl)piperidine-2,6-dione], in the test on EGFR-Del19/T790M/C797S, the DC50 was 0.6 nM and the “Dmax (%) H1975 # 28 DTC” value is 77%. Besides, on EGFR-L858R/T790M/C797S, the DC50 was 1.8 nM and the Dmax worked out at 78%.
Consider `CCc1cc(Nc2ncc(Br)c(Nc3ccc4nc(C)c(F)cc4c3P(C)(C)=O)n2)c(OC)cc1N1CCC(N2CCN(C3CN(c4cccc5c4n(C)c(=O)n5C4CCC(=O)NC4=O)C3)CC2)CC1` (stereo not shown) [Example 22, 3-(4-(3-(4-(1-(4-((5-bromo-4-((5-(dimethylphosphoryl)-3-fluoro-2-methylquinolin-6-yl)amino)pyrimidin-2-yl)amino)-2-ethyl-5-methoxyphenyl)piperidin-4-yl)piperazin-1-yl)azetidin-1-yl)-3-methyl-2-oxo-2,3-dihydro-1H-benzo[d]imidazol-1-yl)piperidine-2,6-dione], for which, in the test with EGFR-Del19/T790M/C797S, the DC50 was 0.6 nM and the “Dmax (%) H1975 # 28 DTC” value is 74%. Moreover, at EGFR-L858R/T790M/C797S, the DC50 is 0.9 nM and the Dmax is 83%.

As usually defined, the DC50 is the concentration at which degradation of the target reaches its halfway point. As a reminder, the Dmax is the largest share of the target that was removed.

For the origin of these results see US20240368203A1, “DEGRADATION OF (EGFR) BY CONJUGATION OF EGFR INHIBITORS WITH E3 LIGASE LIGAND AND METHODS OF USE” (BeiGene, Ltd., priority 2022, published 2024).
